Laboratory results: the supplement of paper PMC11061612

Assays:
[1] = tested on: HCC-44 (Lung Adenocarcinoma); assay: Bliss excess, mean over the matrix (fraction); higher = more synergy
Summary of the method: (§1)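 Bliss excess equals the observed combination effect minus the expected value EA + EB − EA·EB, where EA and EB are the effects of each agent alone. Combination Emax is the second-highest inhibition within the matrix. Inhibition was scaled from CellTiter-Glo 2.0 luminescence, with 0 set by vehicle wells and 1 by blank wells, after 72 hours of two-drug dosing of cells plated in 1536-well plates.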

[2] = tested on: HCC-44 (Lung Adenocarcinoma); assay: combination Emax (second highest fraction inhibited in the dose matrix, 72 h); higher = more inhibition; extreme values may be limits of the assay
Summary of the method: as §1

HuO-3N1 (Osteosarcoma) = assay: as above
Summary of the method: as §1

KYM-1 (Rhabdomyosarcoma) = assay: as above
Summary of the method: as §1

[3] = tested on: PANC-02-03 (Pancreatic Carcinoma); assay: as above
Summary of the method: as §1

[4] = tested on: RERF-LC-KJ (Lung Adenocarcinoma); assay: as above
Summary of the method: as §1

Row | SMILES | Bliss excess [1] | combination Emax [2] | combination Emax (HuO-3N1 (Osteosarcoma)) | combination Emax (KYM-1 (Rhabdomyosarcoma)) | combination Emax [3] | combination Emax [4]
1 | CS(=O)(=O)CCNCc1ccc(-c2ccc3ncnc(Nc4ccc(OCc5cccc(F)c5)c(Cl)c4)c3c2)o1 [Lapatinib] + C[C@@H](Oc1cc(-c2cnn(C3CCNCC3)c2)cnc1N)c1c(Cl)ccc(F)c1Cl [Crizotinib] (first compound max 10 µM, 7x7, partner max 10 µM) | -0.0384 | 0.939 | 0.876 | 0.971 | 0.735 | 0.81
2 | COc1nnc2ccc(N3CCC(c4ccc(OCCN5CCN(C)C(=O)[C@H]5C)cc4)CC3)nn12 [AZD5153] + Cc1c2c(nn1C)CSCc1cc(n(C)n1)CSc1cc(c3ccccc3c1)OCCCc1c(C(=O)O)n(C)c3c-2c(Cl)ccc13 [AZD5991] (first compound max 1 µM, 7x7, partner max 1 µM) | -0.0332 | 0.756 | 0.628 | 1 | 0.595 | 0.979
3 | CC(=O)c1c(C)c2cnc(Nc3ccc(N4CCNCC4)cn3)nc2n(C2CCCC2)c1=O [Palbociclib] + Cc1c2c(nn1C)CSCc1cc(n(C)n1)CSc1cc(c3ccccc3c1)OCCCc1c(C(=O)O)n(C)c3c-2c(Cl)ccc13 [AZD5991] (first compound max 10 µM, 7x7, partner max 1 µM) | -0.0224 | 0.169 | 0.508 | 0.947 | 0.182 | 0.288
4 | C[C@@H](c1ccc2nccn2c1)n1nnc2ncc(-c3cnn(C)c3)nc21 [Savolitinib] + Cc1c2c(nn1C)CSCc1cc(n(C)n1)CSc1cc(c3ccccc3c1)OCCCc1c(C(=O)O)n(C)c3c-2c(Cl)ccc13 [AZD5991] (first compound max 1 µM, 7x7, partner max 1 µM) | -0.0335 | 0.0929 | 0.35 | 0.43 | 0.13 | 0.301
5 | NC1(C(=O)N[C@@H](CCO)c2ccc(Cl)cc2)CCN(c2ncnc3[nH]ccc23)CC1 [Capivasertib] + CC(C)n1c(=O)n(C)c2cnc3cc(F)c(-c4ccc(OCCCN5CCCCC5)nc4)cc3c21 [AZD1390] (first compound max 10 µM, 7x7, partner max 0.3 µM) | -0.0359 | 0.602 | 0.46 | 0.52 | 0.192 | 0.449
6 | C=CCn1c(=O)c2cnc(Nc3ccc(N4CCN(C)CC4)cc3)nc2n1-c1cccc(C(C)(C)O)n1 [AZD1775] + C1CN(CCC1(C(=O)N[C@@H](CCO)C2=CC=C(C=C2)Cl)N)C3=NC=NC4=C3C=CN4 [Capivasertib] (first compound max 3 µM, partner max 3 µM) | -0.0109 | 0.844 | 0.633 | 0.767 | 0.605 | 0.548
7 | NC1(C(=O)N[C@@H](CCO)c2ccc(Cl)cc2)CCN(c2ncnc3[nH]ccc23)CC1 [Capivasertib] + Cn1cnc2c(F)c(Nc3ccc(Br)cc3Cl)c(C(=O)NOCCO)cc21 [Selumetinib] (first compound max 10 µM, 7x7, partner max 10 µM) | 0.106 | 0.824 | 0.439 | 0.52 | 0.572 | 0.436
8 | NC1(C(=O)N[C@@H](CCO)c2ccc(Cl)cc2)CCN(c2ncnc3[nH]ccc23)CC1 [Capivasertib] + CC(=O)c1c(C)c2cnc(Nc3ccc(N4CCNCC4)cn3)nc2n(C2CCCC2)c1=O [Palbociclib] (first compound max 10 µM, 7x7, partner max 10 µM) | -0.0161 | 0.641 | 0.432 | 0.85 | 0.202 | 0.436
9 | CN(C)CCCOc1ccc(-c2ccc3ncc4c(c3c2)n(C2CCOCC2)c(=O)n4C)cn1 [AZD0156] + O=C(c1cc(Cc2n[nH]c(=O)c3ccccc23)ccc1F)N1CCN(C(=O)C2CC2)CC1 [Olaparib] (first compound max 3 µM, partner max 3 µM) | 0.0947 | 0.456 | 0.289 | 0.583 | 0.248 | 0.368
10 | Cc1nc(Nc2ncc(C(=O)Nc3c(C)cccc3Cl)s2)cc(N2CCN(CCO)CC2)n1 [Dasatinib] + CC(=O)Nc1cccc(-n2c(=O)n(C3CC3)c(=O)c3c(Nc4ccc(I)cc4F)n(C)c(=O)c(C)c32)c1 [Trametinib] (first compound max 2 µM, 7x7, partner max 1 µM) | 0.0359 | 0.955 | 0.493 | 0.401 | 0.836 | 0.436
11 | Cn1cnc2c(F)c(Nc3ccc(Br)cc3Cl)c(C(=O)NOCCO)cc21 [Selumetinib] + C=CCn1c(=O)c2cnc(Nc3ccc(N4CCN(C)CC4)cc3)nc2n1-c1cccc(C(C)(C)O)n1 [AZD1775] (first compound max 10 µM, partner max 1 µM) | -0.0088 | 0.64 | 0.259 | 0.591 | 0.572 | 0.401
12 | COc1nnc2ccc(N3CCC(c4ccc(OCCN5CCN(C)C(=O)[C@H]5C)cc4)CC3)nn12 [AZD5153] + CC1(C)CCC(CN2CCN(c3ccc(C(=O)NS(=O)(=O)c4ccc(NCC5CCOCC5)c([N+](=O)[O-])c4)c(Oc4cnc5[nH]ccc5c4)c3)CC2)=C(c2ccc(Cl)cc2)C1 [Venetoclax] (first compound max 1 µM, 7x7, partner max 1 µM) | -0.0395 | 0.615 | 0.337 | 0.859 | 0.582 | 0.971
13 | Cn1cnc2c(F)c(Nc3ccc(Br)cc3Cl)c(C(=O)NOCCO)cc21 [Selumetinib] + C[C@@H]1COCCN1C2=NC(=NC(=C2)C3(CC3)[S@](=N)(=O)C)C4=C5C=CNC5=NC=C4 [AZD6738] (first compound max 10 µM, 7x7, partner max 10 µM) | -0.034 | 0.503 | 0.22 | 0.899 | 0.566 | 0.312
14 | NC1(C(=O)N[C@@H](CCO)c2ccc(Cl)cc2)CCN(c2ncnc3[nH]ccc23)CC1 [Capivasertib] + CCN(CCO)CCCOc1ccc2c(Nc3cc(CC(=O)Nc4cccc(F)c4)[nH]n3)ncnc2c1 [AZD2811] (first compound max 10 µM, 7x7, partner max 1 µM) | -0.0388 | 0.663 | 0.494 | 0.559 | 0.24 | 0.503
15 | NC1(C(=O)N[C@@H](CCO)c2ccc(Cl)cc2)CCN(c2ncnc3[nH]ccc23)CC1 [Capivasertib] + COc1nnc2ccc(N3CCC(c4ccc(OCCN5CCN(C)C(=O)[C@H]5C)cc4)CC3)nn12 [AZD5153] (first compound max 10 µM, 7x7, partner max 1 µM) | -0.0278 | 0.704 | 0.481 | 0.874 | 0.602 | 0.877
16 | Cn1cnc2c(F)c(Nc3ccc(Br)cc3Cl)c(C(=O)NOCCO)cc21 [Selumetinib] + CCN(CCO)CCCOc1ccc2c(Nc3cc(CC(=O)Nc4cccc(F)c4)[nH]n3)ncnc2c1 [AZD2811] (first compound max 10 µM, 7x7, partner max 1 µM) | 0.0067 | 0.528 | 0.181 | 0.318 | 0.475 | 0.289
17 | NC1(C(=O)N[C@@H](CCO)c2ccc(Cl)cc2)CCN(c2ncnc3[nH]ccc23)CC1 [Capivasertib] + C[C@@H]1COCCN1C2=NC(=NC(=C2)C3(CC3)[S@](=N)(=O)C)C4=C5C=CNC5=NC=C4 [AZD6738] (first compound max 10 µM, 7x7, partner max 10 µM) | -0.0298 | 0.661 | 0.592 | 0.969 | 0.474 | 0.478
18 | COc1nnc2ccc(N3CCC(c4ccc(OCCN5CCN(C)C(=O)[C@H]5C)cc4)CC3)nn12 [AZD5153] + Cn1cnc2c(F)c(Nc3ccc(Br)cc3Cl)c(C(=O)NOCCO)cc21 [Selumetinib] (first compound max 1 µM, 7x7, partner max 10 µM) | 0.0636 | 0.728 | 0.356 | 0.972 | 0.866 | 0.868
